Data as given in patent publication US8952024B2, “Herbicidal pyrimidone derivatives” (E I du Pont de Nemours and Company, priority 2009, dated 2015).

Key:
Test in all cases: Test B pre-/postemergence plant response
Assay type in all cases: in vivo
kochia (Kochia scoparia) = test system: kochia (Kochia scoparia)
Outline: (§1)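 Test compounds, formulated in a non-phytotoxic solvent mixture with surfactant, are applied to the soil surface (loam and sand blend) right after seeding, or sprayed over plants at the 1- to 4-leaf stage grown in peat moss/vermiculite medium. After 13 to 15 days under glasshouse conditions, each species is scored visually from 0 (no effect) to 100 (complete control) against controls.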

[1] = test system: large crabgrass (Digitaria sanguinalis)
Outline: as §1

[2] = test system: goosegrass (Eleusine indica)
Outline: as §1

[3] = test system: pigweed (Amaranthus retroflexus)
Outline: as §1

[4] = test system: lambsquarters (Chenopodium album)
Outline: as §1

[5] = test system: johnsongrass (Sorghum halepense)
Outline: as §1

[6] = test system: wheat (Triticum aestivum)
Outline: as §1

[7] = test system: velvetleaf (Abutilon theophrasti)
Outline: as §1

[8] = test system: giant foxtail (Setaria faberii)
Outline: as §1

[9] = test system: green foxtail (Setaria viridis)
Outline: as §1

[10] = test system: downy bromegrass (Bromus tectorum)
Outline: as §1

[11] = test system: yellow nutsedge (Cyperus esculentus)
Outline: as §1

[12] = test system: woolly cupgrass (Eriochloa villosa)
Outline: as §1

[13] = 31 g ai/ha, postemergence, scale 0 to 100, 0 is no effect, 100 is complete control
[14] = 62 g ai/ha, postemergence, 0 is no effect, 100 is complete control, 13 to 15 days
[15] = 250 g ai/ha, Preemergence, 0 to 100 scale
[16] = Postemergence, 125 g ai/ha, visual rating after 13 to 15 days, scale 0 (no effect) to 100 (complete control)
[17] = Postemergence, 250 g ai/ha, scale 0 to 100 (0 no effect, 100 complete control)
[18] = Preemergence, 31 g ai/ha, scale 0 to 100 (0 no effect, 100 complete control)
[19] = Preemergence, 125 g ai/ha, scale 0 to 100, 0 no effect, 100 complete control
[20] = Preemergence, 62 g ai/ha, scale 0 to 100 (0 no effect, 100 complete control)

In the case of `CCCc1ncc(C(=O)C2=C(O)CCCC2=O)c(=O)n1-c1ccccc1C` [Compound 73], the “Plant response rating, Kochia” value (kochia (Kochia scoparia); [13]) is reported as 75, the “Kochia plant response rating (0 to 100 scale)” value (kochia (Kochia scoparia); [14]) is reported as 80 and the “Plant response rating, Kochia” value (kochia (Kochia scoparia); [15]) is reported as 90. For the same compound, the “Plant response rating, Kochia” value (kochia (Kochia scoparia); [16]) was 90, the “Plant response rating, Kochia” value (kochia (Kochia scoparia); [17]) was 90 and the “Plant response rating, Kochia” value (kochia (Kochia scoparia); [18]) was 0. The “Plant response rating, Kochia” value (kochia (Kochia scoparia); [19]) was 80, the “Plant response rating, Crabgrass, Large” value [1, 13] was 80 and the “Crabgrass, Large plant response rating (0 to 100 scale)” value [1, 14] was 85. For the same compound, the “Plant response rating, Crabgrass, Large” value [1, 15] was 100, the “Plant response rating, Crabgrass, Large” value [1, 16] was 90 and the “Plant response rating, Crabgrass, Large” value [1, 17] was 95. For the same compound, the “Plant response rating, Crabgrass, Large” value [1, 18] was 85, the “Plant response rating, Crabgrass, Large” value [1, 20] was 98 and the “Plant response rating, Crabgrass, Large” value [1, 19] was 100. The “Plant response rating, Goosegrass” value [2, 13] was 65, the “Goosegrass plant response rating (0 to 100 scale)” value [2, 14] was 75 and the “Plant response rating, Goosegrass” value [2, 15] was 100. For the same compound, the “Plant response rating, Goosegrass” value [2, 16] was 75, the “Plant response rating, Goosegrass” value [2, 17] was 80 and the “Plant response rating, Goosegrass” value [2, 18] was 85. For the same compound, the “Plant response rating, Goosegrass” value [2, 20] was 98, the “Plant response rating, Goosegrass” value [2, 19] was 100 and the “Plant response rating, Pigweed” value [3, 13] was 80. For the same compound, the “Pigweed plant response rating (0 to 100 scale)” value [3, 14] was 98, the “Plant response rating, Pigweed” value [3, 16] was 100 and the “Plant response rating, Pigweed” value [3, 17] was 100. For the same compound, the “Plant response rating, Pigweed” value [3, 18] was 95, the “Plant response rating, Pigweed” value [3, 20] was 100 and the “Plant response rating, Pigweed” value [3, 19] was 100. The “Plant response rating, Lambsquarters” value [4, 13] was 85, the “Lambsquarters plant response rating (0 to 100 scale)” value [4, 14] was 98 and the “Plant response rating, Lambsquarters” value [4, 15] was 100. For the same compound, the “Plant response rating, Lambsquarters” value [4, 16] was 100, the “Plant response rating, Lambsquarters” value [4, 17] was 100 and the “Plant response rating, Lambsquarters” value [4, 18] was 95. For the same compound, the “Plant response rating, Lambsquarters” value [4, 20] was 98, the “Plant response rating, Lambsquarters” value [4, 19] was 100 and the “Plant response rating, Johnsongrass” value [5, 13] was 10. For the same compound, the “Johnsongrass plant response rating (0 to 100 scale)” value [5, 14] was 65, the “Plant response rating, Johnsongrass” value [5, 15] was 98 and the “Plant response rating, Johnsongrass” value [5, 16] was 70. The “Plant response rating, Johnsongrass” value [5, 17] was 75, the “Plant response rating, Johnsongrass” value [5, 18] was 0 and the “Plant response rating, Johnsongrass” value [5, 20] was 0. The “Plant response rating, Johnsongrass” value [5, 19] was 98, the “Plant response rating, Wheat” value [6, 13] was 0 and the “Wheat plant response rating (0 to 100 scale)” value [6, 14] was 35. The “Plant response rating, Wheat” value [6, 16] was 40, the “Plant response rating, Wheat” value [6, 17] was 50 and the “Plant response rating, Wheat” value [6, 18] was 0. The “Plant response rating, Wheat” value [6, 20] was 0, the “Plant response rating, Wheat” value [6, 19] was 5 and the “Plant response rating, Velvetleaf” value [7, 13] was 95. For the same compound, the “Velvetleaf plant response rating (0 to 100 scale)” value [7, 14] was 100, the “Plant response rating, Velvetleaf” value [7, 16] was 100 and the “Plant response rating, Velvetleaf” value [7, 17] was 100. The “Plant response rating, Velvetleaf” value [7, 18] was 100, the “Plant response rating, Velvetleaf” value [7, 20] was 100 and the “Plant response rating, Velvetleaf” value [7, 19] was 100. For the same compound, the “Plant response rating, Foxtail, Giant” value [8, 13] was 70, the “Foxtail, Giant plant response rating (0 to 100 scale)” value [8, 14] was 75 and the “Plant response rating, Foxtail, Giant” value [8, 15] was 80. For the same compound, the “Plant response rating, Foxtail, Giant” value [8, 16] was 80, the “Plant response rating, Foxtail, Giant” value [8, 17] was 90 and the “Plant response rating, Foxtail, Giant” value [8, 18] was 0. The “Plant response rating, Foxtail, Giant” value [8, 20] was 70, the “Plant response rating, Foxtail, Giant” value [8, 19] was 75 and the “Plant response rating, Foxtail, Green” value [9, 13] was 70. For the same compound, the “Foxtail, Green plant response rating (0 to 100 scale)” value [9, 14] was 90, the “Plant response rating, Foxtail, Green” value [9, 15] was 80 and the “Plant response rating, Foxtail, Green” value [9, 16] was 90. For the same compound, the “Plant response rating, Foxtail, Green” value [9, 17] was 95, the “Plant response rating, Foxtail, Green” value [9, 18] was 0 and the “Plant response rating, Foxtail, Green” value [9, 20] was 30. The “Plant response rating, Foxtail, Green” value [9, 19] was 30, the “Plant response rating, Bromegrass, Downy” value [10, 13] was 20 and the “Bromegrass, Downy plant response rating (0 to 100 scale)” value [10, 14] was 45. The “Plant response rating, Bromegrass, Downy” value [10, 15] was 20, the “Plant response rating, Bromegrass, Downy” value [10, 16] was 50 and the “Plant response rating, Bromegrass, Downy” value [10, 17] was 60. For the same compound, the “Plant response rating, Bromegrass, Downy” value [10, 18] was 0, the “Plant response rating, Bromegrass, Downy” value [10, 20] was 5 and the “Plant response rating, Bromegrass, Downy” value [10, 19] was 5. For the same compound, the “Plant response rating, Nutsedge, Yellow” value [11, 13] was 20, the “Nutsedge, Yellow plant response rating (0 to 100 scale)” value [11, 14] was 20 and the “Plant response rating, Nutsedge, Yellow” value [11, 16] was 50. For the same compound, the “Plant response rating, Nutsedge, Yellow” value [11, 17] was 70, the “Plant response rating, Nutsedge, Yellow” value [11, 18] was 20 and the “Plant response rating, Nutsedge, Yellow” value [11, 20] was 65. The “Plant response rating, Nutsedge, Yellow” value [11, 19] was 65, the “Plant response rating, Cupgrass, Woolly” value [12, 13] was 60 and the “Cupgrass, Woolly plant response rating (0 to 100 scale)” value [12, 14] was 65. The “Plant response rating, Cupgrass, Woolly” value [12, 15] was 80, the “Plant response rating, Cupgrass, Woolly” value [12, 16] was 65 and the “Plant response rating, Cupgrass, Woolly” value [12, 17] was 65. For the same compound, the “Plant response rating, Cupgrass, Woolly” value [12, 18] was 10, the “Plant response rating, Cupgrass, Woolly” value [12, 20] was 20 and the “Plant response rating, Cupgrass, Woolly” value [12, 19] was 55.
